# Measured values as given in patent US8314112B2 (Novartis AG, priority 2008, dated 2012).
# pIC50: −log10 of the molar value.
# Target: T1, human ALK5 (kinase domain, ALK5 T204D) (Homo sapiens, UniProt P36897, T204D)
# T1 construct: The kinase domain of human ALK5 (amino acids 200-503); made in house; host or cells: insect cells (baculovirus)
# T1 sequence (P36897 200-503 T204D): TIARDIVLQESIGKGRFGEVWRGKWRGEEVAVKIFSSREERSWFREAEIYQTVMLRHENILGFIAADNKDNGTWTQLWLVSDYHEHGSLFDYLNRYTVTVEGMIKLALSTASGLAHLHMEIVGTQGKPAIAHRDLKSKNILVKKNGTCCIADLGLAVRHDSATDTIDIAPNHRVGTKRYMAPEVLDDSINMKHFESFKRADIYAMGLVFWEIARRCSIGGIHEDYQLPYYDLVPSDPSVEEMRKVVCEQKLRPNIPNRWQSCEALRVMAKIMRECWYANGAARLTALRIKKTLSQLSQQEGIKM
# Test: ALK5 kinase assay ([33P] phosphate incorporation into casein)
# Assay type: biochemical
# Details: casein substrate, 1 μM unlabelled ATP
# Procedure: The kinase activity of ALK5 is assessed by measuring radiolabelled phosphate [33P] incorporation in to the generic substrate, casein. The kinase domain of human ALK5 (amino acids 200-503) is fused to an N-terminal histidine tag. The kinase activity of ALK5 is rendered constitutive via point mutation at amino acid 204 (threonine to aspartate modification, ALK5 T204D) and the kinase construct is engineered to be expressed from a baculovirus expression construct in insect cells. The purified, recombinantly-expressed histidine-tagged ALK5 T204D protein is dissolved at 5.4 mg/ml in 50 mM Tris-HCl pH 8.0, 150 mM NaCl, 5 mM DTT. ALK5 T204D is dissolved to 2.5 μg/ml in assay buffer (Assay buffer: 20 mM Tris-HCl pH 7.4, 10 mM MgCl2, 2 mM MnCl2) on the day of use.
# Test compounds and reference compounds are dissolved in assay buffer without DTT containing 5% (v/v) DMSO. Stock solutions of test and reference compounds are diluted in assay buffer with DTT (1.25 mM) containing 4.5% (v/v) DMSO. 10 μl of test or reference compound are added to the appropriate wells of 96 well U-bottomed plate. Total enzyme activity is determined by measuring ALK5 T204D activity in the absence of ALK5 kinase inhibitor reference compounds. Non-specific binding (NSB) is determined by measuring the activity of ALK5 T204D in the presence of ALK5 kinase inhibitor reference compounds. 10 μl of dephosphorylated casein stock solution (dephosphorylated casein is dissolved in ddH2O at 20 mg/ml) is added per well (200 μg/well final assay concentration). 20 μl of ALK5 T204D (2.5 μg/ml solution) is added per well (50 ng/well final assay concentration). The plates are left to incubate at room temperature for 10 minutes.
# 10 μl of ATP mix is added to the well to initiate the reaction (0.66 nM [^33P]ATP/1 μM unlabelled ATP/well final assay concentration). The ATP mix is prepared as follows, unlabelled ATP (3 mM) is dissolved in ddH2O and pH adjusted to 7.4. The stock concentration of [^33P]ATP is 10 μCi/μl. The appropriate volume of [^33P]ATP is added to unlabelled ATP solution such that the final assay concentration per well is 0.1 μCi. Following addition of the ATP mix, the plates are incubated at room temperature for 50 minutes. The kinase reaction is terminated by the addition of 50 μL Stop Buffer (20 mM Tris-HCl pH 7.4, 10 mM EDTA).
# 75 μl/well from the reaction plate is transferred to a Multiscreen-IP plate (MultiScreen-IP plates are prepared by added 50 μL of 70% (v/v) ethanol per well and incubated for 5 minutes at room temperature. The ethanol is removed by aspiration via a MultiScreen HTS Vaccum Manifold unit (Millipore, Cat no: MSVMHT500). The plates are washed twice by adding 200 μl/well ddH2O). The MultiScreen-IP plate is incubated at room temperature for 30 minutes to allowing binding of casein to the plate. The MultiScreen-IP plates are washed three times by adding 200 μl/well 100 mM phosphoric acid solution and the gasket is carefully removed from the back of the MultiScreen-IP plate and the plate dried in the oven for 30 minutes. The MultiScreen-IP plate is backsealed, 50 μL of Microscint™20 is added, then the plates are topsealed and radiolabelled casein detected and quantified on a TopCount™ plate-reader using the ^33P scintillation protocol.
row,pIC50,Structure (SMILES)
1,6.57,"Cc1cccc(-c2cc(-c3cncc(N4CCN(C)CC4)c3)c3cc[nH]c3n2)n1 [Example 57, 4-[5-(4-Methyl-piperazin-1-yl)-pyridin-3-yl]-6-(6-methyl-pyridin-2-yl)-1H-pyrrolo[2,3-b]pyridine]"
2,7.25,"CCOc1cncc(-c2cc(-c3cccc(C)n3)nc3[nH]ccc23)c1 [Example 58, 4-(5-Ethoxy-pyridin-3-yl)-6-(6-methyl-pyridin-2-yl)-1H-pyrrolo[2,3-b]pyridine]"
3,7.02,"COc1cccc(-c2cncc(-c3cc(-c4cccc(C)n4)nc4[nH]ccc34)c2)c1 [Example 60, 4-[5-(3-Methoxy-phenyl)-pyridin-3-yl]-6-(6-methyl-pyridin-2-yl)-1H-pyrrolo[2,3-b]pyridine]"
4,7.40,"Cc1cccc(-c2cc(-c3cncc(NC(=O)CCN(C)C)c3)c3cc[nH]c3n2)n1 [Example 62, 3-Dimethylamino-N-{5-[6-(6-methyl-pyridin-2-yl)-1H-pyrrolo[2,3-b]pyridin-4-yl]-pyridin-3-yl}-propionamide]"
5,6.60,"Cc1cccc(-c2cc(-c3cncc(OC(C)C)c3)c3cc[nH]c3n2)n1 [Example 64, 4-(5-Isopropoxy-pyridin-3-yl)-6-(6-methyl-pyridin-2-yl)-1H-pyrrolo[2,3-b]pyridine]"
6,> 7.16,"Cc1cccc(-c2cc(-c3cncc(-c4cccc(CN(C)C)c4)c3)c3cc[nH]c3n2)n1 [Example 66, Dimethyl-(3-{5-[6-(6-methyl-pyridin-2-yl)-1H-pyrrolo[2,3-b]pyridin-4-yl]-pyridin-3-yl}-benzyl)-amine]"
7,> 7.49,"CNCc1cccc(-c2cncc(-c3cc(-c4cccc(C)n4)nc4[nH]ccc34)c2)c1 [Example 68, Methyl-(3-{5-[6-(6-methyl-pyridin-2-yl)-1H-pyrrolo[2,3-b]pyridin-4-yl]-pyridin-3-yl}-benzyl)-amine]"
8,7.77,"CNCc1ccc(-c2cncc(-c3cc(-c4cccc(C)n4)nc4[nH]ccc34)c2)cc1 [Example 73, Methyl-(4-{5-[6-(6-methyl-pyridin-2-yl)-1H-pyrrolo[2,3-b]pyridin-4-yl]-pyridin-3-yl}-benzyl)-amine]"
9,7.92,"Cc1cccc(-c2cc(-c3cncc(-c4ccc(CO)cc4)c3)c3cc[nH]c3n2)n1 [Example 82, (4-{5-[6-(6-Methyl-pyridin-2-yl)-1H-pyrrolo[2,3-b]pyridin-4-yl]-pyridin-3-yl}-phenyl)-methanol]"
10,7.44,"Cc1cccc(-c2cc(-c3cncc(-c4ccc(CN)cc4)c3)c3cc[nH]c3n2)n1 [Example 84, 4-{5-[6-(6-Methyl-pyridin-2-yl)-1H-pyrrolo[2,3-b]pyridin-4-yl]-pyridin-3-yl}-benzylamine]"

# More lines, now with the values behind:
row,Structure (SMILES),pIC50
1,"Cc1cccc(-c2cc(-c3cncc4ccccc34)c3cc[nH]c3n2)n1 [Example 56, 4-[6-(6-Methyl-pyridin-2-yl)-1H-pyrrolo[2,3-b]pyridin-4-yl]-isoquinoline]",> 7.15
2,"Cc1cccc(-c2nc(-c3cncc(-c4cccc(CN)c4)c3)c3cc[nH]c3n2)n1 [Example 59, 3-{5-[2-(6-Methyl-pyridin-2-yl)-7H-pyrrolo[2,3-d]pyrimidin-4-yl]-pyridin-3-yl}-benzylamine]",7.52
3,"Cc1cccc(-c2nc(-c3cncc(-c4ccc(CN)cc4)c3)c3cc[nH]c3n2)n1 [Example 61, 4-{5-[2-(6-Methyl-pyridin-2-yl)-7H-pyrrolo[2,3-d]pyrimidin-4-yl]-pyridin-3-yl}-benzylamine]",7.54
4,"Cc1cccc(-c2cc(-c3cncc(-c4cccc(CN5CCN(C)CC5)c4)c3)c3cc[nH]c3n2)n1 [Example 63, 4-{5-[3-(4-Methyl-piperazin-1-ylmethyl)-phenyl]-pyridin-3-yl}-6-(6-methyl-pyridin-2-yl)-1H-pyrrolo[2,3-b]pyridine]",7.92
5,"Cc1cccc(-c2cc(-c3cncc(-c4ccc(CN(C)C)cc4)c3)c3cc[nH]c3n2)n1 [Example 65, Dimethyl-(4-{5-[6-(6-methyl-pyridin-2-yl)-1H-pyrrolo[2,3-b]pyridin-4-yl]-pyridin-3-yl}-benzyl)-amine]",8.30
6,"Cc1cccc(-c2nc(-c3cncc(-c4cccc(CN5CCOCC5)c4)c3)c3cc[nH]c3n2)n1 [Example 67, 2-(6-Methyl-pyridin-2-yl)-4-[5-(3-morpholin-4-ylmethyl-phenyl)-pyridin-3-yl]-7H-pyrrolo[2,3-d]pyrimidine]",7.62
7,"Cc1cccc(-c2nc(-c3cncc(-c4ccc(CN5CCOCC5)cc4)c3)c3cc[nH]c3n2)n1 [Example 69, 2-(6-Methyl-pyridin-2-yl)-4-[5-(4-morpholin-4-ylmethyl-phenyl)-pyridin-3-yl]-7H-pyrrolo[2,3-d]pyrimidine]",> 7.19
8,Cc1cccc(-c2nc(-c3cncc(-c4ccc(CO)cc4)c3)c3cc[nH]c3n2)n1 [Example 70],7.89
9,"Cc1cccc(-c2nc(-c3cncc(C4=CCCCC4)c3)c3cc[nH]c3n2)n1 [Example 72, 4-(5-Cyclohex-1-enyl-pyridin-3-yl)-2-(6-methyl-pyridin-2-yl)-7H-pyrrolo[2,3-d]pyrimidine]",6.70
10,"Cc1cccc(-c2nc(-c3cncc(C4=CCCC4)c3)c3cc[nH]c3n2)n1 [Example 74, 4-(5-Cyclopent-1-enyl-pyridin-3-yl)-2-(6-methyl-pyridin-2-yl)-7H-pyrrolo[2,3-d]pyrimidine]",6.79
11,Cc1cccc(-c2nc(-c3cncc(-c4cncc(CN(C)C)c4)c3)c3cc[nH]c3n2)n1 [Example 75],6.51
12,CNCc1cncc(-c2cncc(-c3nc(-c4cccc(C)n4)nc4[nH]ccc34)c2)c1 [Example 76],6.93
13,"Cc1cccc(-c2nc(-c3cncc(-c4ccc(C(C)(C)N)cc4)c3)c3cc[nH]c3n2)n1 [Example 77, 1-Methyl-1-(4-{5-[2-(6-methyl-pyridin-2-yl)-7H-pyrrolo[2,3-d]pyrimidin-4-yl]-pyridin-3-yl}-phenyl)-ethylamine]",8.05
14,"Cc1cccc(-c2nc(-c3cncc(-c4cncc(CO)c4)c3)c3cc[nH]c3n2)n1 [Example 78, {5′-[2-(6-Methyl-pyridin-2-yl)-7H-pyrrolo[2,3-d]pyrimidin-4-yl]-[3,3′]bipyridinyl-5-yl}-methanol]",7.31
15,"Cc1cccc(-c2nc(-c3cncc(CO)c3)c3cc[nH]c3n2)n1 [Example 79, {5-[2-(6-Methyl-pyridin-2-yl)-7H-pyrrolo[2,3-d]pyrimidin-4-yl]-pyridin-3-yl}-methanol]",5.91
16,"Cc1cccc(-c2nc(-c3cncc(O)c3)c3cc[nH]c3n2)n1 [Example 80, 5-[2-(6-Methyl-pyridin-2-yl)-7H-pyrrolo[2,3-d]pyrimidin-4-yl]-pyridin-3-ol]",6.62
17,"Cc1cccc(-c2nc(-c3cncc(-c4ccc(C(C)N)cc4)c3)c3cc[nH]c3n2)n1 (stereo not shown) [Example 81, 1-(4-{5-[2-(6-Methyl-pyridin-2-yl)-7H-pyrrolo[2,3-d]pyrimidin-4-yl]-pyridin-3-yl}-phenyl)-ethylamine]",7.77
18,"Cc1cccc(-c2nc(-c3cncc(-c4nnco4)c3)c3cc[nH]c3n2)n1 [Example 83, 2-(6-Methyl-pyridin-2-yl)-4-(5-[1,3,4]oxadiazol-2-yl-pyridin-3-yl)-7H-pyrrolo[2,3-d]pyrimidine]",6.25
